4 compounds from patent publication EP1541138A1, “Novel use of peptide compounds for treating status epilepticus or related conditions” (SCHWARZ PHARMA AG, priority 2003, dated 2005) can be followed below.

The nature of test [1]: Hippocampal damage following SSSE (count of damaged neurons in brain sections, light microscopy). Type of test: in vivo, male Wistar rats. How it is done: (§1) Animals: The experiments were performed on male Wistar rats, 280-300g (Simonsen Labs, CA). Animals were kept at a constant room temperature with 12 hours artificial dark-light cycle with free access to standard diet and tap water.
Surgery: Under ketamine (60 mg/kg)/xylazine (15 mg/kg) anesthesia, animals were implanted with a bipolar stimulating electrode into the angular bundle of the perforant path (4.5 mm to left lambda, 1 mm anterior to lambdoid fissure) and a bipolar recording electrode into the granule cell layer of the ipsilateral dentate gyrus (3.5 mm anterior to lambda, 2.2 mm left to saggital fissure). […]
Selection of sections for counting: Selection of sections for counting was controlled by the stereotaxic atlas for rats (Paxinos and Watson). The 3 sections selected for quantitation contained dorsal hippocampus and were 1.6 ±0.05mm posterior to bregma.
Location of counting fields ― damage to the pyramidal cell layer was assessed by counting damaged neurons in the subiculum, CA1, CA3, CA3c and the hilus in the dorsal hippocampus. The neurons were assessed individually from the beginning of the subiculum to the end of the CA3c region using an Olympus Provis Ax 70 microscope at a magnification of 40x. […]
Criteria for differentiation of damaged versus non-damaged neurons - neurons were counted only if the majority of the nucleus was present in the section. […]

A short description of test [2]: Chemically induced SSSE (cobalt/homocysteine model, homocysteine thiolactone injection). Type of test: in vivo, Male Sprague-Dawley rats. Here is the method:
Male Sprague-Dawley rats were prepared surgically with cobalt powder on the left frontal cortical surface.
Recording and stimulation protocol: four epidural recording electrodes arranged in a square grid (5mm) over the cobalt lesion. EEG was monitored daily beginning 4-5 days following surgery. Status epilepticus was induced by i.p. injection of 5.5mmol/kg homocysteine thiolactone whenever focal motor behaviour and EEG seizures were observed.
Drug administration: SPM 927 was administered (10-100mg/kg) immediately following the second generalized tonic-clonic seizure (GTCS) occurring after homocysteine thiolactone injection.

A short description of test [3]: SSSE after brief electrical stimulation of the perforant path (EEG monitoring for 24 hrs). Type of test: in vivo, male Wistar rats. The note with it: for cumulative seizure duration over the 24h period / time to the last seizure: Experiment 1a: 60 minutes stimulation, i.v. 10 min after end of perforant path stimulation, SPM 927 50 mg/kg, PHT 50 mg/kg, DZP 10 mg/kg, compared to control animals (Fig. 1); for time after injection within which seizures stopped: 50 mg/kg i.v. (fosphenytoin: phenytoin equivalent) 10 min after end of stimulation (Fig. 2A); for Spike frequency (number of spikes/10 min): 50 mg/kg i.v., vs control animals (Fig. 2B). How it is done: as §1
Surgery: Under ketamine (60 mg/kg)/xylazine (15 mg/kg) anesthesia, animals were implanted with a bipolar stimulating electrode into the angular bundle of the perforant path (4.5 mm to left lambda, 1 mm anterior to lambdoid fissure) and a bipolar recording electrode into the granule cell layer of the ipsilateral dentate gyrus (3.5 mm anterior to lambda, 2.2 mm left to saggital fissure). Depth of both electrodes was optimized by monitoring the amplitude and waveform of the population spike evoked from the dentate gyrus by stimuli delivered through the perforant path (single square wave monophasic stimuli, 20 V, 0.1 ms delivered every 10 s).
Induction of self-sustaining status epilepticus (SSSE): Seven days after surgery, animals were connected to a Cardionics 16 channel preamplifier, which was connected to the IBM computer. After 5 minutes of baseline EEG recording, animals were stimulated in the awake state for 60 minutes (Experiment 1 a) or 30 minutes (Experiments 1b and 1 c) with 10 s 20 Hz trains (1 ms square wave, 20 V) delivered every minute, together with 2 Hz continuous stimulation with the same parameters.
EEG monitoring and analysis: EEG from the dentate gyrus was monitored and recorded by means of commercial software (Monitor 8.1 from Stellate Systems). The software was configured for automatic detection and saving of spikes and seizures. Monitoring was performed for 24 hrs. EEG was analyzed off line by means of the same software. Spike distribution was presented as number of spikes per 10 min epoch, and the cumulated duration of seizures for 24 hrs of monitoring were calculated. Statistical analysis was performed by means of T-test. A p value less than 0.05 was considered statistically significant.
Drug administration: SPM 927 (50 mg/kg, 5 animals), phenytoin (PHT) (50 mg/kg), Fosphenytoin (F-PTH Porte-Davis, 50 mg/kg of phenytoin equivalent, 5 animals), diazepam (DZP) (10mg/kg) or vehicle (VEH, 10% DMSO, 6 animals) were given i.v. 10 min after the end of perforant path stimulation in a volume of 1 ml/kg.

The mark [4] stands for this setting: SPM 927 10-100mg/kg immediately following the second GTCS, 30 min following treatment.
[5] abbreviates: Experiment 1b: 30 minutes stimulation.

Molecules are shown by their SMILES.

With `COC[C@@H](NC(C)=O)C(=O)NCc1ccccc1` [SPM 927, (R)-2-acetamide-N-benzyl-3-methoxypropionamide], in test [1] (Experiment 1c: 30 minutes stimulation, SPM 927 50 mg/kg i.v., brains collected 72 hours after SSSE, subiculum, CA1, CA3, CA3c, hilus), the “injured neurons in hippocampal fields” value is “only an occasional injured neuron in any hippocampal field”. Further, the “protection against neuronal injury, statistical significance” value in test [1] (Experiment 1c, vs untreated rats, by hippocampal field) was “statistically significant in the subiculum, CA1 and CA3”. For the same compound, in test [2] (setting [4]), the “latency to the first GTCS” value is “prolonged” and the “mean number of GTCS” value is given as “potently reduced”. In addition, the “number of rats experiencing GTCS” value in test [2] (SPM 927 10-100mg/kg immediately following the second GTCS, observed 30 min following treatment) is recorded as “reduced in a dose-dependent fashion”. In addition, the “GTCS at the highest dose” value in test [2] (highest dose of SPM 927 (range 10-100mg/kg), 30 min following treatment) was “completely abolished all GTCS”. Further, in test [3], the “cumulative seizure duration over the 24h period” value was “potently and significantly reduced”; the “time to the last seizure” value is “potently and significantly reduced”. For the same compound, the “efficacy on both parameters (cumulative seizure duration, time to the last seizure) when compared to DZP and PHT” value in test [3] (Experiment 1a, SPM 927 50 mg/kg i.v. vs DZP 10 mg/kg and PHT 50 mg/kg (Fig. 1)) is on record as “somewhat more efficacious”. In addition, the “recurrence of seizures over the next 24 hrs” value in test [3] (Experiment 1b: 30 minutes stimulation, 50 mg/kg i.v. (Fig. 2A)) was “did not recur”. Besides, in test [3] (Experiment 1b: 30 minutes stimulation, 50 mg/kg i.v. (Fig. 2B)), the “time for which only a few single spikes were recorded” value is reported as “about 12 hrs”. In addition, in test [3] (setting [5]), the “time after injection within which seizures stopped” value is not above 15 min and the “Spike frequency (number of spikes/10 min)” value is on record as “significantly decreased”.
Turning to `O=C1NC(=O)C(c2ccccc2)(c2ccccc2)N1` [PHT, phenytoin, reference compound], in test [3], the “cumulative seizure duration over the 24h period” value was “potently and significantly reduced”; the “time to the last seizure” value was “potently and significantly reduced”.
Take `O=C1NC(c2ccccc2)(c2ccccc2)C(=O)N1COP(=O)(O)O` [Fosphenytoin, reference compound]: in test [3] (setting [5]), the “time after injection within which seizures stopped” value is on record as not above 15 min and the “Spike frequency (number of spikes/10 min)” value is on record as “significantly lower than in control animals but significantly higher than in SPM 927 treated rats”.
Take `CN1C(=O)CN=C(c2ccccc2)c2cc(Cl)ccc21` [DZP, diazepam, reference compound]: in test [3], the “cumulative seizure duration over the 24h period” value is “potently and significantly reduced”; the “time to the last seizure” value was “potently and significantly reduced”.
